From patent publication US20260337212A1, “IP4-4,6 SUBSTITUTED DERIVATIVE COMPOUNDS FOR USE IN THE TREATMENT, INHIBITION OF PROGRESSION, AND PREVENTION OF ECTOPIC CALCIFICATION” (SANIFIT THERAPEUTICS, S.A., priority 2022, published 2026)
pEC50: −log10 of the molar value.

Assays:
[1] = In vitro inhibition of calcium phosphate crystallization in human plasma (spectrophotometric); format: biochemical; details: 0-100 μM, 1.5 mM phosphate, 12.5 mM calcium, pH 7.4, 30 min, rt, read-out: Relative Potency (EC50, inhibition of calcium phosphate crystallization)
Summary of the method: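 Human plasma spiked with compound (0-100 μM), centrifuged, then brought to final 1.5 mM phosphate and 12.5 mM calcium, pH 7.4. Absorbance at 550 nm read every 3 min for 30 min at rt; inhibition from slopes (6-24 min, absorbance vs log time) relative to blank plasma.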

[2] = Rat calcinosis cutis/calciphylaxis model (vitamin D3 and FeCl3): skin plaque calcification; format: in vivo, Sprague Dawley rat; details: for Skin plaque % inhibition of calcification: FeCl3 0.5 mg/kg
Description: The dose-response efficacy of IP4-4,6 derivatives in the prevention and treatment of calcinosis cutis and calciphylaxis (CUA) induced by vitamin D3 and FeCl3 in a rat model was used. The model evaluated the effects of Compound 27 and IP6 on the formation of calcified skin plaques in rats for a duration of 8 days. Animals were sensitized at low concentration (LC, 35,000 IU/kg) and high concentration (HC, 50,000 IU/kg) doses of vitamin D3. A FeCl3 solution (0.5 mg/kg) was used as challenger to induce the formation of skin plaques. All animals were weighed every day before treatment.
Eighty-six male Sprague Dawley (SD) rats (Envigo Corp., Huntingdon, GB) weighing approximately 250-300 g were used. The animals were fed with a standard LASQCdiet® Rod14-H diet (LASvendi, Soest, DE). The animals were divided in 8 groups, 6 to 12 animals per group, as follows:
The following solutions were prepared: (a) 17,500 IU/mL (LC) and 25,000 IU/mL (HC) vitamin D3 (cholecalciferol, Duphafral D3 1000; Zoetis Inc., Parsippany, NJ, US), (b) 0.3 mg/mL FeCl3 (FeCl3·6H2O, 99%, Scharlab S. L., Barcelona, E S), (c) 30 mg/mL IP6 (660 g/mol phytic acid, pH 6.5-7.7), and (d) 15, 30, and 50 mg/mL Compound 27 (754.45 g/mol free acid, pH 6.5-7.7). All solutions were prepared in a 0.9% (w/v) physiological saline NaCl medium. An application volume of 2 mL/kg was employed.
Group 1—Control (sham), 6 animals. Animals in group 1 were administered subcutaneously physiological saline (0.9% (w/v) NaCl solution daily from D1 to D3 in the interscapular space, and with one saline 0.9% injection at each of the two ventral sites in the thorax on D4. Animals in group 1 were not administered Vit D or FeCl3 solutions.
(§1) Group 2—Physiological saline solution low concentration (Vehicle LC): Vit D 35,000 IU/kg, 0.5 mg/kg FeCl3 solution, 10 animals. Vit D at dose 35,000 IU/kg was administered subcutaneously x 3 consecutive days (D1, D2, D3), and one 0.5 mg/kg FeCl3 injection at each of the two ventral sites in the thorax on D4. This group received a daily saline 0.9% s.c. treatment (D1 to D8).
(§2) Group 3—Compound 27 60 mg/kg LC: Vit D 35,000 IU/kg, 0.5 mg/kg FeCl3, 10 animals. Vit D at dose 35,000 IU/kg was administered subcutaneously x 3 consecutive days (D1, D2, D3), and one 0.5 mg/kg FeCl3 injection at each of the two ventral sites in the thorax on D4. This group received a daily Compound 27 s.c. treatment at 60 mg/kg dose (D1 to D8).
as §1, with “4—Physiological” for “2—Physiological”, “high” for “low”, “HC):” for “LC):”, “50,000” for “35,000”, “FeCl3, 12” for “FeCl3 solution, 10”
as §2, with “5—IP6” for “3—Compound 27”, “HC,” for “LC:”, “50,000” for “35,000”, “12” for “10”, “IP6” for “Compound 27”
as §2, with “6—Compound” for “3—Compound”, “30” for “60”, “HC,” for “LC:”, “50,000” for “35,000”, “12” for “10”
as §2, with “7—Compound” for “3—Compound”, “[…],” for “LC:”, “50,000” for “35,000”, “12” for “10”
Group 8—Compound 27 100 mg/kg HC, Vit D 50,000 IU/kg, 0.5 mg/kg FeCl3, 12 animals. […]

pEC50 [1]: ≥ 5.30
Substance: 4,6-O-bis(5-acetamidopentyl)-myo-inositol-1,2,3,5-tetrakis(phosphate) octasodium salt [Compound 27]
Skin plaque % inhibition of calcification ([2]; 30 mg/kg s.c. daily D1-D8, HC (vitamin D3 50,000 IU/kg)): 96.8 ± 0.7 % | Skin plaque % inhibition of calcification ([2]; 60 mg/kg s.c. daily D1-D8, HC (vitamin D3 50,000 IU/kg)): 98.2 ± 0.1 % | Skin plaque % inhibition of calcification ([2]; 60 mg/kg s.c. daily D1-D8, LC (vitamin D3 35,000 IU/kg)): 95.7 ± 0.9 % | Skin plaque % inhibition of calcification ([2]; 100 mg/kg s.c. daily D1-D8, HC (vitamin D3 50,000 IU/kg)): 98.6 ± 0.1 % | Inhibition of the formation of skin plaque ([2]; 30, 60, 100 mg/kg s.c.): inhibits the formation of skin plaque in rats in a dose-response manner | Degree of inhibition of skin plaque calcification compared with IP6 ([2]; same dose (60 mg/kg)): higher than that reached by IP6 at the same dose
